Values of other authors, collected in US20210386733A1, “LYSINE-SPECIFIC HISTONE DEMETHYLASE INHIBITORS FOR THE TREATMENT OF MYELOPROLIFERATIVE NEOPLASMS” (Imago Biosciences, Inc., priority 2019, published 2021).

Test system: primary myelofibrosis patients
Conditions: 50 to 100 mg/day in combination with prednisone; cited from earlier work

For O=C1CCC(N2C(=O)c3ccccc3C2=O)C(=O)N1 (centres unmarked) [Thalidomide], which “patients with improved anemia and thrombocytopenia” value is on record?
Its value is “approximately 60%”.

What about the “patients with reduced spleen size” value of the same molecule?
The value was “approximately 20%”.
